Structures can show the parent of a compound that is named as a salt.

One assay relates to SD rat. The assay can be described thus: 32P-phosphate oral loading test using SD rat (phosphorus absorption inhibitory effect). As to conditions: Rattus norvegicus, 0.5 h; SD male rats, oral dose 3 mg/kg; plasma radioactivity 30 minutes after 32P-phosphate solution, vs control group; read-out: Rate of inhibition of phosphate absorption. Format: in vivo. The procedure, abridged:
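Male 8-week-old SD rats were dosed orally at 5 ml/kg with compound at 0.2 mg/mL or 0.6 mg/mL in water, then 5 min later given 32P-phosphate in 1.3 mM NaH2PO4 (5 ml/kg). Plasma radioactivity at 30 minutes was counted by liquid scintillation; inhibition (%) was calculated relative to the water-dosed control group.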

Another assay has as its target T1, human NHE3 (Homo sapiens, UniProt P48764).
T1 sequence (P48764 26-834): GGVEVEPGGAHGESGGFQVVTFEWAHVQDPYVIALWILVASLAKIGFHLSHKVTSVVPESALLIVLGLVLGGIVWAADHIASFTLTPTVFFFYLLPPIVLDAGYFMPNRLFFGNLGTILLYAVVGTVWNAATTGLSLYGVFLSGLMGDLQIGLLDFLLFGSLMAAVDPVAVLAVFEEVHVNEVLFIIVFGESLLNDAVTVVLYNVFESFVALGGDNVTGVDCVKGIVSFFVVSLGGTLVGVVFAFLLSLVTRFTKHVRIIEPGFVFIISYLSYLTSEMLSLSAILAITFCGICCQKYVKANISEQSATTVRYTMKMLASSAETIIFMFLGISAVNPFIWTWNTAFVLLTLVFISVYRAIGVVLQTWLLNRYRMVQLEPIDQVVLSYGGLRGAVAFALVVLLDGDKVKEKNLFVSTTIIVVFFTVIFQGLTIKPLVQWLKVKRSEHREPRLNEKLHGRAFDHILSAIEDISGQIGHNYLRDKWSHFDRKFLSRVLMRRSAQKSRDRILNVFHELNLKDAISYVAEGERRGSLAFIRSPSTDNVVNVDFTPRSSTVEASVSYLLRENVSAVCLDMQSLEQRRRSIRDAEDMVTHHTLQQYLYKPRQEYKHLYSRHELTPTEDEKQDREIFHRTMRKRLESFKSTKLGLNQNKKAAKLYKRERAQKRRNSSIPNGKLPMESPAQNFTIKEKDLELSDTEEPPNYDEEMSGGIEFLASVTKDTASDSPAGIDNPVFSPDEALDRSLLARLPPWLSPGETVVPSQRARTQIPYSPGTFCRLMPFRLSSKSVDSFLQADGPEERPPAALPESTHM
The assay can be described thus: NHE3 inhibition test (recovery of intracellular pH in cell line stably expressing human NHE3). As to conditions: OK cells deficient in endogenous NHE stably expressing human NHE3; BCECF fluorescence, initial rate of pH recovery; read-out: human NHE3 inhibitory activity IC50. The format is cell-based. A digest of the protocol: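 IC50 is the concentration halving the initial rate of Na-triggered intracellular pH recovery, tracked by BCECF fluorescence, in NH4Cl-acidified cells. Cells: NHE-deficient OK line stably transfected with human NHE3; compound added in Na-free pH 7.4 buffer.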

What is called IC50 is the midpoint of a concentration-inhibition curve. Turning to `CN1Cc2c(Cl)cc(Cl)cc2[C@H](c2cccc(-c3cc(OCCOCCOCCNC(=O)[C@H](O)[C@@H](O)C(=O)NCCOCCOCCOc4cc(-c5cccc([C@@H]6CN(C)Cc7c(Cl)cc(Cl)cc76)c5)ncn4)ncn3)c2)C1` [Example 8-16, (2R,3R)-N,N′-Bis[2-(2-{2-[(6-{3-[(4S)-6,8-dichloro-2-methyl-1,2,3,4-tetrahydroisoquinolin-4-yl]phenyl}pyrimidin-4-yl)oxy]ethoxy}ethoxy)ethyl]-2,3-dihydroxybutanediamide hydrochloride], the inhibition in vivo at 3 mg/kg in the assay on SD rat turned out to be 31%. In addition, the IC50 at human NHE3 was 7.6 nM.

As for `CN1Cc2c(Cl)cc(Cl)cc2[C@H](c2cccc(-c3cc(OCCOCCOCCOCCNC(=O)[C@H](O)[C@@H](O)C(=O)NCCOCCOCCOCCOc4cc(-c5cccc([C@@H]6CN(C)Cc7c(Cl)cc(Cl)cc76)c5)ncn4)ncn3)c2)C1` [Example 8-17, (2R,3R)-N,N′-Bis{2-[2-(2-{2-[(6-{3-[(4S)-6,8-dichloro-2-methyl-1,2,3,4-tetrahydroisoquinolin-4-yl]phenyl}pyrimidin-4-yl)oxy]ethoxy}ethoxy)ethoxy]ethyl}-2,3-dihydroxybutanediamide hydrochloride], in the assay with SD rat, the inhibition in vivo at 3 mg/kg worked out at 18%. The IC50 at human NHE3 came out at 2.5 nM.

As for `CN1Cc2c(Cl)cc(Cl)cc2[C@@H](c2cccc(-c3cc(OCCOCCOCCOCCNC(=O)COCC(=O)NCCOCCOCCOCCOc4cc(-c5cccc([C@@H]6CN(C)Cc7c(Cl)cc(Cl)cc76)c5)ncn4)ncn3)c2)C1` [Example 8-18, 1-[(6-{3-[(4R)-6,8-Dichloro-2-methyl-1,2,3,4-tetrahydroisoquinolin-4-yl]phenyl}pyrimidin-4-yl)oxy]-N-{2-[2-(2-{2-[(6-{3-[(4S)-6,8-dichloro-2-methyl-1,2,3,4-tetrahydroisoquinolin-4-yl]phenyl}pyrimidin-4-yl)oxy]ethoxy}ethoxy)ethoxy]ethyl}-13-oxo-3,6,9,15-tetraoxa-12-azaheptadecan-17-amide hydrochloride], the inhibition in vivo at 3 mg/kg in the assay on SD rat worked out at 27%. Also, on human NHE3, the IC50 came out at 10.7 nM.

As to `CN1Cc2c(Cl)cc(Cl)cc2[C@H](c2cccc(-c3cncc(NCCOCCOCCOCCNC(=O)[C@H](O)[C@@H](O)C(=O)NCCOCCOCCOCCNc4cncc(-c5cccc([C@@H]6CN(C)Cc7c(Cl)cc(Cl)cc76)c5)n4)n3)c2)C1` [Example 8-20, (2R,3R)-N,N′-Bis{2-[2-(2-{2-[(6-{3-[(4S)-6,8-dichloro-2-methyl-1,2,3,4-tetrahydroisoquinolin-4-yl]phenyl}pyrazin-2-yl)amino]ethoxy}ethoxy)ethoxy]ethyl}-2,3-dihydroxybutanediamide tetrahydrochloride], the inhibition in vivo at 3 mg/kg in the assay with SD rat is 37%. Besides, the IC50 on human NHE3 was found to be 3.3 nM.

The record behind these values is US9932331B2, “Phenyl tetrahydroisoquinoline compound substituted with heteroaryl” (TAISHO PHARMACEUTICAL CO., LTD, priority 2014, dated 2018).
